Test results as given in ChEMBL document CHEMBL3639115, “Benzimidazole inhibitors of leukotriene production” (2014).

Biological target: T1, Arachidonate 5-lipoxygenase-activating protein (Homo sapiens, UniProt P20292)
T1 sequence (P20292 whole entry): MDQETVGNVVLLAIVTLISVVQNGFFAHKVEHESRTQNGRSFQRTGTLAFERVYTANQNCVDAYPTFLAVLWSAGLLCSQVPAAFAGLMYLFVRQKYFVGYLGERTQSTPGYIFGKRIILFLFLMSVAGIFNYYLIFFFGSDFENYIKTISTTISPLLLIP
Experiment: Scintillation Proximity Assay: Compounds are assessed for the ability to bind to FLAP in a binding assay that measures compound-specific displacement of an iodinated (125I) FLAP inhibitor via a Scintillation Proximity Assay format (adapted from S. Charleson et al., Mol. Pharmacol., 1992, 41, 873-879).Cell pellets produced from sf9 insect cells expressing recombinant human FLAP protein are resuspended in buffer A [15 mM Tris-HCl (pH 7.5), 2 mM MgCl2, 0.3 mM EDTA, 1 mM PMSF]. The cells are lysed with a Dounce homogenizer and the material is centrifuged at 10,000xg for 10 minutes. The supernatant is then collected and centrifuged at 100,000xg for 60 minutes. To prepare membrane protein for an assay, an aliquot of the 100,000xg pellet is resuspended in 1 ml of buffer A, Dounce homogenized, and finally subjected to polytron mixing (30 seconds). Membrane protein (25 ul, 5 ug) is mixed with WGA SPA beads (Amersham) and stirred for 1 h. To an assay plate (Perkin Elmer FlexiPlate) is added 25 ul of test compound.

Compound `CC(C)(C)n1c(-c2ccccc2C(N)=O)nc2cc(-c3cnc(N)nc3)ccc21` has an IC50 of 35.4 nM.
